Data: article PMC5363072 (Bioorganic & medicinal chemistry letters, 2016)
Each block holds one molecule with its values, some of them ahead of it.

Columns and labels:
Rat ASCT2 = biological target: T1, Rat ASCT2 (Rattus norvegicus, UniProt D3ZJ25); format: cell-based
T1 sequence (D3ZJ25 1-555): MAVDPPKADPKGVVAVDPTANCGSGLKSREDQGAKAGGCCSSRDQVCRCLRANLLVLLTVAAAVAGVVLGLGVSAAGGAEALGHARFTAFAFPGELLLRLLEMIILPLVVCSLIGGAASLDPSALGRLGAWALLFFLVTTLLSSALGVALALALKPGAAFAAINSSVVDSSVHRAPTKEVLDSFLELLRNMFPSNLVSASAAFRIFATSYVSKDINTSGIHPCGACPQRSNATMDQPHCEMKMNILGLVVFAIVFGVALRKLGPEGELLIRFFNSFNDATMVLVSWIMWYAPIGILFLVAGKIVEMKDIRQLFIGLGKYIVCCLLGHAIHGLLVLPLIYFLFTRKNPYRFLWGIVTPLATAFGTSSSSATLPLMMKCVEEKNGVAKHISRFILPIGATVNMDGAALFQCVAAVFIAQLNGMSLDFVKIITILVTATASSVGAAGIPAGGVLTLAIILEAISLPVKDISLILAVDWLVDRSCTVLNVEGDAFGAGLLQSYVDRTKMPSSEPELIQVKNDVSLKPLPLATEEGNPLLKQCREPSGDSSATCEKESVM

ASCT2 = settings: commercially available ASCT2 inhibitor; cited from earlier work

Ki (Rat ASCT2): 83 ± 20 µM
Compound: O=C(O)[C@@H]1C[C@@H](Cc2ccccc2F)CN1 [(R)-γ-(2-fluoro-benzyl)-L-proline]

Compound: N[C@@H](CCC(=O)Nc1ccc([N+](=O)[O-])cc1)C(=O)O [L-γ-glutamyl-nitroanilide]
affinity for ASCT2 (ASCT2): mM affinity

activity in ASCT2 (Rat ASCT2; concentration up to 1 mM): does not induce any activity
Compound: O=C(O)[C@@H]1CCCN1 [proline]

Compound: O=C(O)[C@@H]1C[C@@H](Cc2ccc(-c3ccccc3)cc2)CN1 [(R)-γ-(4-biphenylmethyl)-L-proline]
higher affinity compared to any other ASCT2 inhibitor tested so far (Rat ASCT2; compared to authors' earlier ASCT2 inhibitors [11],[15]): about 8 fold
